According to patent publication US20200281949A1, “METHODS FOR TREATING CASTRATION-RESISTANT AND CASTRATION-SENSITIVE PROSTATE CANCER” (TOLERO PHARMACEUTICALS, INC., priority 2018, published 2020):

Assays:
[1] = tested on: subcutaneous 22Rv1 human prostate cancer xenograft; test: Efficacy study in the 22Rv1 xenograft prostate cancer model; type: in vivo, male BALB/c nude mice; conditions: castrated mice, 21 days; doses per Table 1: Cmpd Str (I) 1.25 mg/kg p.o. BID or 10 mg/kg p.o. Q7D; enzalutamide 30 mg/kg p.o. QD; docetaxel 10 mg/kg i.p. Q7D; ABT199 100 mg/kg p.o. QD
Method: The objective of this study was to evaluate the in vivo therapeutic efficacy of the compound of structure (I) or a pharmaceutically acceptable salt or zwitterionic form thereof in the treatment of a subcutaneous 22Rv1 human prostate cancer xenograft model. For the 22Rv1 model, efficacy of the compound of structure (I) was evaluated in male BALB/c nude mice. Cobalt-60 irradiation of all mice was performed 2 days before the tumor inoculation at 2 Gy (1 Gy=100 rads). Each mouse was inoculated at the right flank with 1×10^7 tumor cells in 0.1 ml of PBS mixed with matrigel (1:1). The date of tumor cell inoculation was denoted as day 0.
Castration was performed when mean tumor volume reached approximately 200 mm^3. Mice were anesthetized with ketamine/xylazine; surgical castration was performed via a midline scrotal incision allowing bilateral access to the hemiscrotal contents; after exposing each testicle, a 6-0 Vicryl suture was used to ligate the spermatic cord and then remove the testicle; the scrota and skin was then closed with 6-0 Vicryl suture, separately. Treatments started when the mean tumor volume re-grew to approximately 100 mm^3.
After tumors reached the appropriate size, approximately 100-200 mm^3, mice were randomized into treatment groups 1-11, which are shown in Table 1. Each treatment was administered starting on day 15, at a dosing volume of 5 μL/g and continued for 21 days (or 22 days for groups with treatment at Q7D). For groups with treatment at Q7D×3 weeks, dosing was performed on days 1, 8, and 15 post-randomization, and the study was terminated on day 22 post randomization. The combined treatment intervals were each 0 h, and the interval for BID was 8 h. Randomization was performed based on the “Matched distribution” method (StudyDirector™ software, version 3.1.399.19) randomized block design.
Tumor volumes were measured twice per week after randomization in two dimensions using a caliper, and the volume was expressed in mm^3 using the formula: “V=(L×W×W)/2,” where V is tumor volume, L is tumor length (the longest tumor dimension) and W is tumor width (the longest tumor dimension perpendicular to L). The average tumor volume for each group, as a percentage of the average tumor volume of the control group (group 1), is shown in FIG. 6. […] The percentage shown in FIG. 7 (% T/C) is calculated as mean(T)/mean(C)*100%, with “T” representing tumor volume and “C” representing tumor volume for group 1.
T and C are the mean tumor volume (or weight) of the treated groups and control group (group 1), respectively, on a given day. The percentages shown in FIG. 10 are calculated as % ΔT/C=(mean(T)−mean(T0))/(mean(C)−mean(C0))*100%, with “0” indicating the initial timepoint.

[2] = tested on: PC-3 prostate tumor xenograft; test: Tumor growth in PC-3 mouse xenograft model; type: in vivo; conditions: oral gavage 1.25 mg/kg BID x 21 days, or 7.5 or 15 mg/kg q7d x 3
Method: The effects of the compound of structure (I) on tumor growth in the PC-3 mouse xenograft model were also assessed. PC-3 prostate tumor cells were maintained in vitro as a monolayer culture in Ham's F12K medium supplemented with 10% fetal bovine serum at 37° C. in an atmosphere of 5% CO2 in air. The cells in an exponential growth phase were harvested and counted for tumor inoculation. Each mouse was inoculated subcutaneously at the right flank region with PC-3 prostate tumor cells (5×10^6 cells) in 0.1 ml of PBS for tumor development. When the mean tumor size reached approximately 100 mm^3, the mice were randomized and divided into study groups. Compound of structure (I) was administered at 1.25 mg/kg twice daily (BID) for 21 days, or 7.5 mg/kg or 15 mg/kg once weekly (q7d×3) by oral gavage. Tumor volumes were measured twice weekly in two dimensions using a caliper, and the volume expressed in mm^3 using the formula: V=(L×W×W)/2, where V is tumor volume, L is tumor length (the longest tumor dimension) and W is tumor width (the longest tumor dimension perpendicular to L).

[3] = Phase I dose-escalation study in patients with advanced solid tumors: safety; type: in vivo, human
From the text: Patients with advanced metastatic or progressive solid tumors who were refractory to, or intolerant of, established therapy known to provide clinical benefit for their condition were enrolled. Cohorts of 3-6 patients each received escalating doses of compound of structure (I) using a modified Fibonacci dose escalation approach. Once the optimal dose has been established, additional patients may be enrolled to confirm safety and to explore efficacy. Twenty additional patients will be enrolled in an expansion cohort at the maximum tolerated dose (MTD).
This is an ongoing Phase 1, open-label, dose-escalation, safety, PK and PD study. The proposed starting dose and schedule for oral compound of structure (I) was a 1-mg flat dose once daily (QD) for 14 days followed by a 7-day drug-free recovery period (each cycle=21 days). In the absence of dose-limiting toxicities (DLTs) in the first cohort of at least 3 patients, the dose was increased using a modified Fibonacci dose escalation scheme, and BID dosing commenced according to the dose escalation schedule described in Table 8. The first patient in cohort 6 has been enrolled at 8 mg compound of structure (I) BID. The baseline demographics of the first 14 patients enrolled in the study are described in Table 6.
DLT was defined as any one of the following events observed in cycle 1, regardless of investigator attribution, unless there was a clear alternative explanation: • 1. Grade 3 or greater febrile neutropenia • 2. Grade 4 neutropenia for ≥7 consecutive days • 3. Grade 4 thrombocytopenia or Grade 3 thrombocytopenia with clinically significant bleeding or that requires a platelet transfusion • 4. Grade 3 or 4 nonhematologic AEs will be considered dose limiting, regardless of duration aside from the specific parameters described herein • 5. Grade 4 nausea, vomiting, or diarrhea, regardless of duration • 6. Dosing delays≥1 week due to treatment-emergent adverse events (TEAEs) or related severe laboratory test values • 7. Any AST and ALT elevation>3× ULN (if baseline value was normal) or ≥3× the baseline value (if baseline value was abnormal) accompanied by serum bilirubin levels>2×ULN • 8. […] Any Grade≥3 elevations in creatinine • 10. Any Grade 5 toxicity

[4] = Phase I dose-escalation study in patients with advanced solid tumors: plasma PK; type: in vivo, human; conditions: any timepoint
Method: Plasma PK parameters of compound of structure (I) and alvocidib were evaluated in Cohorts 1-5 at specific timepoints during the study. Blood was collected from patients in Cohorts 1-5 according to the pharmacokinetic sampling schedule described in Table 9.
PK parameters were estimated using standard noncompartmental methods. Actual sample collection times were used rather than scheduled collection times. Plasma concentrations below the limit of quantification were treated as 0. Imbedded missing plasma concentrations (e.g., missing values between two observed values) were estimated using linear […]. This is consistent with using the trapezoidal rule to calculate AUC. Other missing plasma concentrations were excluded from calculations to estimate PK parameters.

[5] = patients, oral, Cohorts 1-5 (1 mg QD to 6 mg BID), to date

CN1CC[C@H](c2c(OP(=O)(O)O)cc(O)c3c(=O)cc(-c4ccccc4Cl)oc23)[C@H](O)C1 [compound of structure (I)]
anti-cancer activity in the 22Rv1 xenograft model (tumor growth) [1]: modest activity
tumor growth in PC-3 mouse xenograft model [2]: inhibited tumor growth
Treatment-emergent adverse events, Grade 3: Anemia ([3]; number of patients (%), N = 14): 1 (7%)
Treatment-emergent adverse events, Grade 3: Chest Pain ([3]; number of patients (%), N = 14): 1 (7%)
Treatment-emergent adverse events, Grade 3: Haematuria ([3]; number of patients (%), N = 14): 1 (7%)
Treatment-emergent adverse events, Grade 3: Hypotension ([3]; number of patients (%), N = 14): 1 (7%)
Treatment-emergent adverse events, Grade 3: Hypoxia ([3]; number of patients (%), N = 14): 1 (7%)
Treatment-emergent adverse events, Grade 3: Malignant Pleural Effusion ([3]; number of patients (%), N = 14): 1 (7%)
Treatment-emergent adverse events, Grade 3: Pain ([3]; number of patients (%), N = 14): 1 (7%)
Treatment-emergent adverse events, Grade 3: Swelling ([3]; number of patients (%), N = 14): 1 (7%)
dose-limiting diarrhea or neutropenia [3, 5]: no evidence of dose-limiting diarrhea or neutropenia
unexplained toxicity [3, 5]: no unexplained toxicity
detection of compound of structure (I) in plasma ([4]; Cohort 2, 1 mg BID oral, any sample): no compound of structure (I) was detected
detectable compound of structure (I) in plasma ([4]; across cohorts (FIGS. 24G, 24H), oral Formulation No. 401-01): no detectable compound of structure (I)
